Test system: c-myc (DNA, G4) TGAGGGTGGGTAGGGTGGGTAA
Assay: fluorescence light-up, plate reader
Conditions: 50 mM K+ (KCl); 50 mM Tris/HCl pH 7.5, room temperature; 1 µM strand, 0.5 µM ThT

fluorescence fold increase: 14 fold
Compound: Cc1ccc2c(c1)sc(-c1ccc(N(C)C)cc1)[n+]2C
